The experiment addresses SARS-CoV-2 Papain-like (PLpro) protease (Severe acute respiratory syndrome coronavirus 2, UniProt P0DTD1). In words: SARS-CoV-2 Papain-like (PLpro) protease biochemical enzyme inhibition assay (ubiquitin-fluorophore substrate, Ub-R110).
Where [1] appears, read: Ub-R110 substrate, run in duplicate, read-out: PLpro IC50.

IC50 data for 65 compounds are collected here from patent US20240327334A1, “Covalent Inhibitors As Antiviral Agents” (Enanta Pharmaceuticals, Inc., priority 2022, published 2024).

pIC50: −log10 of the molar value. Like-named read-outs stand apart in the source and are kept apart here. Bounds are passed on as bounds.

The term pIC50 denotes the IC50 on a negative log10 scale, so that one unit is a factor of ten. As for `C[C@@H](NC(=O)c1ccccc1CNC(=O)C(=O)NCCC#N)c1cccc2ccccc12` [Example 5], the negative-log IC50 (pIC50) under setting [1] was under 5.00. On the same count and under the same terms, under `CC#CC(=O)NNC(=O)C(=O)NCc1ccccc1C(=O)N[C@H](C)c1cccc2ccccc12` [Example 7] stands under 5.00; under `C[C@@H](NC(=O)c1ccccc1CNC(=O)C(=O)NCCC(=O)C(F)(F)F)c1cccc2ccccc12` [Example 9], 5.00 to 6.00; under `COC(=O)/C=C/CCNC(=O)C(=O)Nc1ccccc1C(=O)N[C@H](C)c1cccc2ccccc12` [Example 10], under 5.00. The same measure, in the same setting: under `COC(=O)/C=C/CNC(=O)C(=O)Nc1ccccc1C(=O)N[C@H](C)c1cccc2ccccc12` [Example 11] stands under 5.00. The compound `CCOP(=O)(/C=C/CCNC(=O)C(=O)NCc1ccccc1C(=O)N[C@H](C)c1cccc2ccccc12)OCC` [Example 12] showed a negative logarithm of the IC50 (pIC50) of under 5.00. In the case of `C[C@@H](NC(=O)c1ccccc1CNC(=O)C(=O)NCC/C=C/P(=O)(O)O)c1cccc2ccccc12` [Example 13], the pIC50 under setting [1] was under 5.00.

Turning to `C[C@@H](NC(=O)c1ccccc1CNC(=O)C(=O)NC/C=C/C(=O)O)c1cccc2ccccc12` [Example 14], under setting [1], the negative logarithm of the IC50 (pIC50) was 5.00 to 6.00. In the case of `C[C@@H](NC(=O)c1ccccc1CNC(=O)C(=O)NC1(C#N)CC1)c1cccc2ccccc12` [Example 15], under setting [1], the pIC50 is under 5.00. Still for that read-out and setting: under `CNC(=O)/C=C/CNC(=O)C(=O)NCc1ccccc1C(=O)N[C@H](C)c1cccc2ccccc12` [Example 16] stands 5.00 to 6.00; under `COC(=O)/C=C/CCNC(=O)C(=O)NCC1C[C@H]1C(=O)N[C@H](C)c1cccc2ccccc12` (some centres unmarked) [Example 17], under 5.00; under `COC(=O)/C=C/CNC(=O)C(=O)NCC1C[C@H]1C(=O)N[C@H](C)c1cccc2ccccc12` (some centres unmarked) [Example 18], 5.00 to 6.00. Still for that read-out and setting: under `COC(=O)/C=C/CCNC(=O)C(=O)NCC1C[C@@H]1C(=O)N[C@H](C)c1cccc2ccccc12` (some centres unmarked) [Example 19] stands under 5.00. In the case of `COC(=O)/C=C/CNC(=O)C(=O)NCC1C[C@@H]1C(=O)N[C@H](C)c1cccc2ccccc12` (some centres unmarked) [Example 20], the pIC50 under setting [1] is 5.00 to 6.00. Consider `C[C@@H](NC(=O)c1ccccc1CNC(=O)C(=O)N1CCC(=O)N1)c1cccc2ccccc12` [Example 23], for which, under setting [1], the pIC50 is under 5.00. Same read-out and setting: under `C#CC(=O)NNC(=O)C(=O)Nc1ccccc1C(=O)N[C@H](C)c1cccc2ccccc12` [Example 26] stands 5.00 to 6.00; under `C=CC(=O)NNC(=O)C(=O)Nc1ccccc1C(=O)N[C@H](C)c1cccc2ccccc12` [Example 27], under 5.00; under `COC(=O)/C=C/CNC(=O)C(=O)NCc1c(F)cc(F)cc1C(=O)N[C@H](C)c1cccc2ccccc12` [Example 30], 6.00 to 7.00.

Consider `C#CCNC(=O)C(=O)NCc1ccccc1C(=O)NC1(c2cccc3ccccc23)CC1` [Example 32], for which the negative logarithm of the IC50 (pIC50) under setting [1] is over 7.00. Still for that read-out and setting: under `C[C@@H](NC(=O)c1ccccc1CNC(=O)C(=O)NCC#N)c1cc(-c2ccccc2)cc(C(F)(F)F)c1` [Example 34] stands over 7.00; under `COC(=O)/C=C/CNC(=O)C(=O)NCc1ccccc1C(=O)N[C@H](C)c1cc(-c2ccccc2)cc(C(F)(F)F)c1` [Example 35], over 7.00. Consider `COC(=O)/C=C/C1(NC(=O)C(=O)NCc2ccccc2C(=O)N[C@H](C)c2cccc3ccccc23)CC1` [Example 36], for which the pIC50 under setting [1] is under 5.00.

For `COC(=O)/C=C/CNC(=O)C(=O)NCCc1ccccc1C(=O)N[C@H](C)c1cccc2ccccc12` [Example 37], the pIC50 under setting [1] is 6.00 to 7.00. On the same count and under the same terms, under `N#CCNC(=O)C(=O)NCc1ccccc1C(=O)NC1(c2ccc3ccccc3c2)CC1` [Example 39] stands 6.00 to 7.00.

In the case of `N#CC1CCCN1C(=O)C(=O)NCc1ccccc1C(=O)NC1(c2cccc3ccccc23)CC1` (centres unmarked) [Example 41], the negative logarithm of the IC50 (pIC50) under setting [1] was under 5.00. Consider `C=C(CNC(=O)C(=O)NCc1ccccc1C(=O)N[C@H](C)c1cccc2ccccc12)C(=O)O` [Example 42], for which the pIC50 under setting [1] is under 5.00. Still for that read-out and setting: under `COC(=O)/C=C/CNC(=O)C(=O)NCc1ccccc1C(=O)NC1(c2ccc3ccccc3c2)CC1` [Example 43] stands over 7.00; under `N#CCNC(=O)C(=O)NCc1ccccc1C(=O)NC1(c2cc(Br)cc3ccccc23)CC1` [Example 44], over 7.00. With `N#CCNC(=O)C(=O)NCc1ccccc1C(=O)NC1(c2cc(C(F)(F)F)cc(C(F)(F)F)c2)CC1` [Example 45], the pIC50 under setting [1] was 5.00 to 6.00. For the compound `CC(NC(=O)C(=O)NCC#N)c1ccccc1C(=O)N[C@H](C)c1cccc2ccccc12` (some centres unmarked) [Example 50], the pIC50 under setting [1] is under 5.00. For the compound `COC(=O)/C=C/CCNC(=O)C(=O)NC(C)c1ccccc1C(=O)N[C@H](C)c1cccc2ccccc12` (some centres unmarked) [Example 51], under setting [1], the pIC50 is under 5.00. Same read-out and setting: under `COC(=O)/C=C/CNC(=O)C(=O)NC(C)c1ccccc1C(=O)N[C@H](C)c1cccc2ccccc12` (some centres unmarked) [Example 52] stands 5.00 to 6.00. On the same count and under the same terms, under `C#CCNC(=O)C(=O)NCc1ccccc1C(=O)NC1(c2cc(-c3cn(-c4ccc(F)cc4F)nn3)cc(C(F)(F)F)c2)CC1` [Example 57] stands 5.00 to 6.00. Same read-out and setting: under `N#CCNC(=O)C(=O)NCc1ccccc1C(=O)NC1(c2cc(-c3cn(-c4ccc(F)cc4F)nn3)cc(C(F)(F)F)c2)CC1` [Example 58] stands under 5.00. Take `N#CCNC(=O)C(=O)NCc1ccccc1C(=O)NC1(c2cc(-c3cn(C4CC4)nn3)cc(C(F)(F)F)c2)CC1` [Example 60]: the pIC50 under setting [1] was 6.00 to 7.00. With `C#CCNC(=O)C(=O)NCc1ccccc1C(=O)NC1(c2cc(Oc3cccc(OC)c3)cc(C(F)(F)F)c2)CC1` [Example 63], the pIC50 under setting [1] is under 5.00. Same read-out and setting: under `COc1cccc(Oc2cc(C(F)(F)F)cc(C3(NC(=O)c4ccccc4CNC(=O)C(=O)NCC#N)CC3)c2)c1` [Example 64] stands under 5.00; under `C#CCNC(=O)C(=O)NCc1ccccc1C(=O)NC1(c2cc(Oc3cccc(C(F)(F)F)c3)cc(C(F)(F)F)c2)CC1` [Example 65], under 5.00; under `N#CCNC(=O)C(=O)NCc1ccccc1C(=O)NC1(c2cc(Oc3cccc(C(F)(F)F)c3)cc(C(F)(F)F)c2)CC1` [Example 66], under 5.00. Same read-out and setting: under `C#CCNC(=O)C(=O)NCc1ccccc1C(=O)NC1(c2cc(Oc3ccccc3)cc(C(F)(F)F)c2)CC1` [Example 67] stands under 5.00; under `N#CCNC(=O)C(=O)NCc1ccccc1C(=O)NC1(c2cc(Oc3ccccc3)cc(C(F)(F)F)c2)CC1` [Example 68], under 5.00. Same read-out and setting: under `N#CCNC(=O)C(=O)NCc1ccccc1C(=O)NC1(c2cc(Cl)cc(-c3cnc(C(F)(F)F)nc3)c2)CC1` [Example 72] stands 6.00 to 7.00. For `O=C(NCC#Cc1cc(F)cc(F)c1)C(=O)NCc1ccccc1C(=O)NC1(c2ccc3ccccc3c2)CC1` [Example 75], under setting [1], the pIC50 was under 5.00. On the same count and under the same terms, under `O=C(NCC#Cc1ccc(F)cc1)C(=O)NCc1ccccc1C(=O)NC1(c2ccc3ccccc3c2)CC1` [Example 76] stands under 5.00. Same read-out and setting: under `CN(C(=O)c1cc(Cl)cc(C2(NC(=O)c3ccccc3CNC(=O)C(=O)NCC#N)CC2)c1)c1ccc(F)cc1` [Example 78] stands 6.00 to 7.00; under `O=C(NCC#Cc1ccc(F)cc1F)C(=O)NCc1ccccc1C(=O)NC1(c2ccc3ccccc3c2)CC1` [Example 80], under 5.00; under `O=C(NCC#Cc1ccc(C(F)(F)F)s1)C(=O)NCc1ccccc1C(=O)NC1(c2ccc3ccccc3c2)CC1` [Example 89], under 5.00. Same read-out and setting: under `C#C[C@@H](NC(=O)C(=O)NCc1ccccc1C(=O)NC1(c2ccc3nn(C)cc3c2)CC1)C(C)C` [Example 91] stands under 5.00; under `N#Cc1ccc(C#CCNC(=O)C(=O)NCc2ccccc2C(=O)NC2(c3ccc4ccccc4c3)CC2)s1` [Example 92], 5.00 to 6.00; under `N#Cc1cccc(C#CCNC(=O)C(=O)NCc2ccccc2C(=O)NC2(c3ccc4ccccc4c3)CC2)c1` [Example 93], under 5.00.

Take `N#Cc1ccc(C#CCNC(=O)C(=O)NCc2ccccc2C(=O)NC2(c3ccc4ccccc4c3)CC2)c(C(F)(F)F)c1` [Example 95]: the pIC50 under setting [1] is 6.00 to 7.00. Same read-out and setting: under `N#CCNC(=O)C(=O)NCc1ccccc1C(=O)NC1(c2cccc3ccccc23)COC1` [Example 96] stands under 5.00; under `C[C@@H](C#Cc1ccc(F)cc1C#N)NC(=O)C(=O)NCc1ccccc1C(=O)NC1(c2ccc3nn(C)cc3c2)CC1` [Example 101], 6.00 to 7.00. The same measure, in the same setting: under `C#CCNC(=O)C(=O)NCc1ccccc1C(=O)NC1(c2cccc3ccccc23)COC1` [Example 102] stands under 5.00. Same read-out and setting: under `N#Cc1ccc(C#CCNC(=O)C(=O)NCc2ccccc2C(=O)NC2(c3cccc4ccccc34)COC2)c(F)c1` [Example 108] stands under 5.00; under `C[C@@H](C#Cc1ccc(C#N)cc1C#N)NC(=O)C(=O)NCc1ccccc1C(=O)NC1(c2ccc3nn(C)cc3c2)CC1` [Example 110], 5.00 to 6.00. With `C[C@@H](C#Cc1ccc([S+](C)[O-])cc1)NC(=O)C(=O)NCc1ccccc1C(=O)NC1(c2ccc3nn(C)cc3c2)CC1` (some centres unmarked) [Example 111], the pIC50 under setting [1] was 5.00 to 6.00. On the same count and under the same terms, under `COc1ccc(C#C[C@H](C)NC(=O)C(=O)NCc2ccccc2C(=O)NC2(c3ccc4nn(C)cc4c3)CC2)c(C#N)c1` [Example 112] stands over 7.00.

Regarding `C[C@@H](C#Cc1ccc(Cl)cc1C#N)NC(=O)C(=O)NCc1ccccc1C(=O)NC1(c2ccc3nn(C)cc3c2)CC1` [Example 113], the pIC50 under setting [1] is over 7.00. Same read-out and setting: under `N#CCNC(=O)C(=O)NCc1ccc(C(=O)NC2CC2)cc1C(=O)NC1(c2ccc(F)c3ccccc23)CC1` [Example 116] stands over 7.00; under `N#C[C@H]1CCCN1C(=O)C(=O)NCc1ccccc1C(=O)NC1(c2cccc3ccccc23)CC1` [Example 118], under 5.00. The same measure, in the same setting: under `N#C[C@@H]1CCN1C(=O)C(=O)NCc1ccccc1C(=O)NC1(c2cccc3ccccc23)CC1` [Example 119] stands 5.00 to 6.00; under `N#C[C@H]1CCN1C(=O)C(=O)NCc1ccccc1C(=O)NC1(c2cccc3ccccc23)CC1` [Example 120], under 5.00; under `O=C(NCc1ccccc1C(=O)NC1(c2ccc(F)c3ccccc23)CC1)C(=O)N[C@H]1CNC1=O` [Example 122], under 5.00.

With `O=C(NCc1ccccc1C(=O)NC1(c2ccc(F)c3ccccc23)CC1)C(=O)N[C@@H]1CNC1=O` [Example 123], the pIC50 under setting [1] is under 5.00.
